pIC50: −log10 of the molar value. Like-named read-outs stand apart in the source and are kept apart here.

What all share (assay type): cell-based
The subject of assay [1] is acute myeloid leukemia cells (MOLM-13). Briefly: In vitro potency (CellTiter-Glo, 96 h), MOLM-13. To be noted: Homo sapiens, MOLM-13, 96 h, CellTiter-Glo after 96 h exposure. An outline of the steps:
(§1)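 Seed log-phase cells 24 h (RPMI 1640, 20% FBS); add ADC serial dilutions; incubate 96 h, 37 °C; read luminescence; IC50 in ng/mL.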

The subject of another assay is melanoma cells (A2058). Briefly: In vitro potency (CellTiter-Glo, 96 h), A2058. To be noted: Homo sapiens, A2058, 96 h, read-out: IC50 (nmol/L) A2058. An outline of the steps:
as §1
(In general: Cellular ATP, detected with luciferase, serves as a proxy for viable cell number.)

The subject of assay [2] is B-lymphocyte cancer cells (SU-DHL4). Description: In vitro potency (CellTiter-Glo, 96 h), SU-DHL-4. To be noted: Homo sapiens, SU-DHL-4, 96 h, CellTiter-Glo after 96 h exposure. The method in brief:
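Cells in log-phase growth seeded 24 h in RPMI 1640 with 20% FBS, then exposed to serially diluted ADC or CPT free drug for 96 h at 37 °C. Growth inhibition read by CellTiter-Glo luminescence; IC50 reported in ng/mL or nmol/L.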

For a further assay, the system named is Ls174T cells. Briefly: In vitro potency (CellTiter-Glo, 96 h), Ls174T. The following applies: Homo sapiens, LS174T, CellTiter-Glo after 96 h exposure. The method in brief:
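Cells in log-phase growth are plated in RPMI 1640/20% FBS for 24 h. Serially diluted conjugates are then added, and plates are kept at 37 °C for 4 days before ATP-based luminescence gives growth inhibition.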

In assay [3] the test system is anaplastic large cell lymphoma cells (Karpas299). Briefly: In vitro potency (CellTiter-Glo, 96 h), Karpas299. The following applies: Homo sapiens, KARPAS-299, 96 h, CellTiter-Glo after 96 h exposure. The method in brief:
(§2)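 Medium: RPMI 1640 + 20% FBS. Pre-seeding: 24 h. Treatment: ADC or CPT free drug serial dilutions, 96 h, 37 °C. Read-out: luminescence; IC50 in ng/mL and nmol/L.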

The subject of assay [4] is pancreatic cancer cells (BxPC3). Description: In vitro potency (CellTiter-Glo, 96 h), BxPC3. To be noted: Homo sapiens, BXPC-3, 96 h, CellTiter-Glo after 96 h exposure. The method in brief: as §1
Assay [5] has as its system anaplastic large cell lymphoma cells (DEL). Briefly: In vitro potency (CellTiter-Glo, 96 h), DEL. The method in brief: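 Log-phase cells were seeded for 24 h in RPMI 1640 with 20% FBS, then exposed to serially diluted antibody-drug conjugates or free camptothecin drug for 4 days at 37 °C. Growth inhibition was read by luminescence, and IC50 values were reported in ng/mL and nmol/L.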

Assay [6] relates to Hodgkin's lymphoma cells (L540cy). Briefly: In vitro potency (CellTiter-Glo, 96 h), L540cy. An outline of the steps: as §2
In assay [7] the test system is anaplastic large cell lymphoma cells (DELBVR). Briefly: In vitro potency (CellTiter-Glo, 96 h), DELBVR. An outline of the steps: as §2
Assay [8] has as its system non-small-cell lung cancer cells (Calu1). Description: In vitro potency (CellTiter-Glo, 96 h), Calu1. To be noted: Homo sapiens, Calu-1, 96 h, read-out: IC50 (nmol/L) Calu1. An outline of the steps: as §1
The subject of assay [9] is breast cancer cells (MDA-MB-231). Description: In vitro potency (CellTiter-Glo, 96 h), MDA-MB-231. The following applies: Homo sapiens, MDA-MB-231, 96 h, CellTiter-Glo after 96 h exposure. An outline of the steps:
as §2

The subject of assay [10] is renal carcinoma cells (786-O). Briefly: In vitro potency (CellTiter-Glo, 96 h), 786-O. The following applies: Homo sapiens, 786-0, 96 h, CellTiter-Glo after 96 h exposure. An outline of the steps:
as §2

[11] abbreviates: CPT free drugs, Table 24, read-out: IC50 (nmol/L) MOLM-13.
The mark [12] stands for this setting: CPT free drugs, Table 24, CellTiter-Glo after 96 h exposure.
Setting [13] is: CPT free drugs, Table 24, read-out: IC50 (nmol/L) SU-DHL-4.
[14] abbreviates: CPT free drugs, Table 24, read-out: IC50 (nmol/L) Ls174T.
Setting [15] is: CPT free drugs, Table 24, read-out: IC50 (nmol/L) Karpas299.
[16] abbreviates: CPT free drugs, Table 24, read-out: IC50 (nmol/L) BxPC3.
[17] abbreviates: CPT free drugs, Table 24, CellTiter-Glo after 96 h exposure, read-out: IC50 (nmol/L) DEL.
Where [18] appears, read: CPT free drugs, Table 24, CellTiter-Glo after 96 h exposure, read-out: IC50 (nmol/L) L540cy.
The mark [19] stands for this setting: CPT free drugs, Table 24, CellTiter-Glo after 96 h exposure, read-out: IC50 (nmol/L) DELBVR.
Where [20] appears, read: CPT free drugs, Table 24, read-out: IC50 (nmol/L) MDAMB231.
Setting [21] is: CPT free drugs, Table 24, read-out: IC50 (nmol/L) 786-O.

As for `CC[C@@]1(O)C(=O)OCc2c1cc1n(c2=O)Cc2c-1nc1cc3c(cc1c2CN)CCC3` [Compound 2v], the pIC50 was 6.46 in assay [1] (setting [11]); 7.72 in the assay with melanoma cells (A2058) (setting [12]); 7.47 in assay [2] (setting [13]); 7.77 in the assay with Ls174T cells (setting [14]); 7.43 in assay [3] (setting [15]); 6.78 in assay [4] (setting [16]). Moreover, the pIC50 was 8.05 in assay [5] (setting [17]); 7.72 in assay [6] (setting [18]); 7.85 in assay [7] (setting [19]); 6.61 in [8] (setting [12]); 7.47 in assay [9] (setting [20]); 7.48 in assay [10] (setting [21]).
For the molecule `CCc1cc2nc3c(c(CN)c2c(F)c1C)Cn1c-3cc2c(c1=O)COC(=O)[C@]2(O)CC` [Compound 2w], the pIC50 is less than 6.00 in assay [1] (setting [11]); 6.54 with melanoma cells (A2058) (setting [12]); 6.02 in assay [2] (setting [13]); 6.07 in the assay with Ls174T cells (setting [14]); less than 6.00 in assay [3] (setting [15]); less than 6.00 in [4] (setting [16]). For the same molecule, the pIC50 in assay [5] (setting [17]) is 6.55; in assay [6] (setting [18]) it was 6.04; in assay [7] (setting [19]), 6.57; in assay [8] (setting [12]), less than 6.00; in assay [9] (setting [20]), less than 6.00; in [10] (setting [21]), 6.19.
Consider `CC[C@@]1(O)C(=O)OCc2c1cc1n(c2=O)Cc2c-1nc1cc(F)c(OC)c(F)c1c2CN` [Compound 2x], for which the pIC50 in assay [1] (setting [11]) is 7.72; with melanoma cells (A2058) (setting [12]), 8.30; in assay [2] (setting [13]), 8.15; in the assay with Ls174T cells (setting [14]), 7.80; in assay [3] (setting [15]) it was 7.96; in assay [4] (setting [16]), 7.47. The pIC50 in assay [5] (setting [17]) is 8.40; in [6] (setting [18]), 8.22; in [7] (setting [19]), 8.30; in [8] (setting [12]), 7.57; in [9] (setting [20]) it was 7.04; in assay [10] (setting [21]) it was 7.74.
Turning to `CC[C@@]1(O)C(=O)OCc2c1cc1n(c2=O)Cc2c-1nc1cc(F)c(C)c(Cl)c1c2CN` [Compound 2y], the pIC50 in [1] (read-out: IC50 (nmol/L) MOLM-13, CPT free drugs, Table 24) is 7.80; in the assay on melanoma cells (A2058), 9.00; in assay [2] (read-out: IC50 (nmol/L) SU-DHL-4, CPT free drugs, Table 24) it was 9.00; in the assay on Ls174T cells (96 h, read-out: IC50 (nmol/L) Ls174T, CPT free drugs, Table 24), 8.52; in assay [3] (read-out: IC50 (nmol/L) Karpas299, CPT free drugs, Table 24), 8.70; in [4] (read-out: IC50 (nmol/L) BxPC3, CPT free drugs, Table 24) it was 8.22. For the same molecule, the pIC50 in [5] (read-out: IC50 (nmol/L) DEL, CPT free drugs, Table 24, CellTiter-Glo after 96 h exposure) is 9.00; in assay [6] (read-out: IC50 (nmol/L) L540cy, CPT free drugs, Table 24, CellTiter-Glo after 96 h exposure), 9.00; in assay [7] (read-out: IC50 (nmol/L) DELBVR, CPT free drugs, Table 24, CellTiter-Glo after 96 h exposure), 9.00; in [8], 7.82; in assay [9] (read-out: IC50 (nmol/L) MDAMB231, CPT free drugs, Table 24) it was 7.82; in assay [10] (read-out: IC50 (nmol/L) 786-O, CPT free drugs, Table 24) it was 8.52.
For `CC[C@@]1(O)C(=O)OCc2c1cc1n(c2=O)Cc2c-1nc1cc(OC)c(C)c(F)c1c2CN` [Compound 2z], the pIC50 (in [1] (setting [11]); in the assay on melanoma cells (A2058) (setting [12]); in assay [2] (setting [13]); in the assay on Ls174T cells (setting [14]); in [3] (setting [15]); in assay [4] (setting [16])) was less than 6.00 in each case. Further, the pIC50 in assay [5] (setting [17]), in [6] (setting [18]), in assay [7] (setting [19]), in assay [8] (setting [12]), in [9] (setting [20]) and in [10] (setting [21]) was less than 6.00 each time.
`CC[C@@]1(O)C(=O)OCc2c1cc1n(c2=O)Cc2c-1nc1ccc(O)cc1c2CN` [Compound 3a]: the pIC50 in assay [1] (setting [11]) was 7.24; in the assay with melanoma cells (A2058) (setting [12]), 7.80; in [2] (setting [13]), 7.79; with Ls174T cells (setting [14]), 7.43; in assay [3] (setting [15]), 7.23; in assay [4] (setting [16]) it was 6.87. For the same molecule, the pIC50 was 8.00 in assay [5] (setting [17]); 7.74 in [6] (setting [18]); 7.85 in assay [7] (setting [19]); 6.41 in [8] (setting [12]); 7.41 in assay [9] (setting [20]); 7.28 in assay [10] (setting [21]).
On to `CC[C@@]1(O)C(=O)OCc2c1cc1n(c2=O)Cc2c-1nc1cc(F)c(O)cc1c2CN` [Compound 3b], for which the pIC50 (in assay [1] (setting [11]); with melanoma cells (A2058) (setting [12]); in assay [2] (setting [13]); with Ls174T cells (setting [14]); in assay [3] (setting [15]); in assay [4] (setting [16])) was less than 6.00 throughout. Further, the pIC50 in [5] (setting [17]), in [6] (setting [18]), in [7] (setting [19]), in [8] (setting [12]), in assay [9] (setting [20]) and in assay [10] (setting [21]) was less than 6.00 each time.
Turning to `CC[C@@]1(O)C(=O)OCc2c1cc1n(c2=O)Cc2c-1nc1cc(F)c(O)c3c1c2CNC3` [Compound 3c], the pIC50 (in [1] (setting [11]); in the assay on melanoma cells (A2058) (setting [12]); in assay [2] (setting [13]); with Ls174T cells (setting [14]); in [3] (setting [15]); in assay [4] (setting [16])) was less than 6.00 in each case. The pIC50 in assay [5] (setting [17]), in assay [6] (setting [18]), in [7] (setting [19]), in assay [8] (setting [12]), in assay [9] (setting [20]) and in assay [10] (setting [21]) was less than 6.00 throughout.
As for `CC[C@@]1(O)C(=O)OCc2c1cc1n(c2=O)Cc2c-1nc1cc(F)c(O)c(F)c1c2CN` [Compound 3d], the pIC50 (in assay [1] (setting [11]); with melanoma cells (A2058) (setting [12]); in assay [2] (setting [13]); in the assay with Ls174T cells (setting [14]); in assay [3] (setting [15]); in [4] (setting [16])) was less than 6.00 each time. For the same molecule, the pIC50 in [5] (setting [17]) is 6.07; in assay [6] (setting [18]), less than 6.00; in [7] (setting [19]), less than 6.00; in assay [8] (setting [12]) it was less than 6.00; in [9] (setting [20]), less than 6.00; in assay [10] (setting [21]) it was less than 6.00.

(Values after US20240207427A1, “SELECTIVE DRUG RELEASE FROM INTERNALIZED CONJUGATES OF BIOLOGICALLY ACTIVE COMPOUNDS” (priority 2021, published 2024).)
